Source: patent publication US20090105221A1, “MUSCARINIC RECEPTOR ANTAGONISTS” (RANBAXY LABORATORIES LIMITED, priority 2004, published 2009)

Question: Which melting point does the source give for `O=C(NCC1C2CCC1CNC2)C(O)(c1ccccc1)c1ccccc1` (stereo not shown) here?
Answer: 85.2 °C
